Experimental data as given in PubChem BioAssay AID256 (DTP/NCI, 2004).
“And” between values parts separate entries of the source, which are not always exact repeats. Equal values may be shown once. Toxic doses and inconclusive results are not listed. The calls were made as follows: active = survival T/C of 150% or more; inactive = T/C below 125% in these data.

Tested on: CD2F1 mice, L1210 leukemia ip, survival T/C
Experiment: NCI In Vivo Anticancer Drug Screen. Data for tumor model L1210 Leukemia (intraperitoneal) in CD2F1 (CDF1) mice
Settings: higher = longer survival
Method in brief: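 Ratio T/C, where T is the treated-group value and C the vehicle-dosed control value, from mice implanted with a transplantable tumor.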

[1] = endpoint: mean survival time, dose: 100.0 mg/kg/injection, schedule: Q04DX003 (ip), vehicle: water
[2] = endpoint: mean survival time, dose: 200.0 mg/kg/injection, schedule: Q01DX009 (ip), vehicle: saline
[3] = endpoint: mean survival time, dose: 50.0 mg/kg/injection, schedule: Q04DX002 (ip), vehicle: saline with Tween-80
[4] = endpoint: mean survival time, dose: 100.0 mg/kg/injection, schedule: Q04DX002 (ip), vehicle: saline with Tween-80

Measured: T/C

[Cl][Pt][Cl].[NH-]C(CO)C(=O)O (stereo not given)
inactive: endpoint: mean survival time, dose: 3.13 mg/kg/injection, schedule: Q04DX003 (ip), vehicle: water 106 % of control | endpoint: mean survival time, dose: 6.25 mg/kg/injection, schedule: Q04DX003 (ip), vehicle: water 113 % of control | endpoint: mean survival time, dose: 12.5 mg/kg/injection, schedule: Q04DX003 (ip), vehicle: water 113 % of control | endpoint: mean survival time, dose: 25.0 mg/kg/injection, schedule: Q04DX003 (ip), vehicle: water 118 % of control | endpoint: mean survival time, dose: 50.0 mg/kg/injection, schedule: Q04DX003 (ip), vehicle: water 119 % of control | [1] 95 % of control | endpoint: median survival time, dose: 6.25 mg/kg/injection, schedule: Q01DX009 (ip), vehicle: water 117 % of control | endpoint: median survival time, dose: 12.5 mg/kg/injection, schedule: Q01DX009 (ip), vehicle: water 117 % of control | endpoint: median survival time, dose: 25.0 mg/kg/injection, schedule: Q01DX009 (ip), vehicle: water 124 % of control

NC(CCC(=O)NC(CSC(c1ccccc1)(c1ccccc1)c1ccc(F)cc1)C(=O)NCC(=O)O)C(=O)O (stereo not given)
active: [2] 150 % of control
inactive: endpoint: mean survival time, dose: 25.0 mg/kg/injection, schedule: Q01DX009 (ip), vehicle: saline 120 % of control

CC1(C)OCC(COCc2ccccc2)O1 (stereo not given)
inactive: endpoint: mean survival time, dose: 100.0 mg/kg/injection, schedule: Q01DX009 (ip), vehicle: saline 96 % of control | [2] 91 % of control | endpoint: mean survival time, dose: 400.0 mg/kg/injection, schedule: Q01DX009 (ip), vehicle: saline 96 % of control

NCCCNCCCCNC(=O)C(O)NC(=O)CC(O)CCCCN=C(N)N (stereo not given)
active: endpoint: median survival time, dose: 1.56 mg/kg/injection, schedule: Q01DX009 (ip), vehicle: saline 161 % of control and 181 % of control | endpoint: median survival time, dose: 3.0 mg/kg/injection, schedule: Q01DX009 (ip), vehicle: saline 162 % of control | endpoint: median survival time, dose: 3.12 mg/kg/injection, schedule: Q01DX009 (ip), vehicle: saline 164 % of control and 168 % of control and 210 % of control | endpoint: median survival time, dose: 6.0 mg/kg/injection, schedule: Q01DX009 (ip), vehicle: saline 207 % of control | endpoint: median survival time, dose: 6.25 mg/kg/injection, schedule: Q01DX009 (ip), vehicle: saline 164 % of control and 191 % of control and 219 % of control | endpoint: median survival time, dose: 12.0 mg/kg/injection, schedule: Q01DX009 (ip), vehicle: saline 219 % of control | endpoint: median survival time, dose: 12.5 mg/kg/injection, schedule: Q01DX009 (ip), vehicle: saline 173 % of control and 196 % of control and 217 % of control | endpoint: median survival time, dose: 100.0 mg/kg/injection, schedule: Q01DX009 (ip), vehicle: saline 206 % of control and 235 % of control

Nc1ncnc2c1ncn2C1OC(CO)C2NP(=O)(N(CCCl)CCCl)OC21 (stereo not given)
inactive: endpoint: mean survival time, dose: 15.6 mg/kg/injection, schedule: Q01DX001 (ip), vehicle: distilled water + Tween-80 98 % of control and 101 % of control | endpoint: mean survival time, dose: 31.3 mg/kg/injection, schedule: Q01DX001 (ip), vehicle: distilled water + Tween-80 101 % of control | endpoint: mean survival time, dose: 62.5 mg/kg/injection, schedule: Q01DX001 (ip), vehicle: distilled water + Tween-80 101 % of control

COc1ccc(NC2=NCCS2)cc1
inactive: endpoint: mean survival time, dose: 100.0 mg/kg/injection, schedule: Q04DX003 (ip), vehicle: saline with Tween-80 94 % of control | endpoint: mean survival time, dose: 200.0 mg/kg/injection, schedule: Q04DX003 (ip), vehicle: saline with Tween-80 101 % of control

CCOC(=O)Nc1cc2ncc(C(=O)N(C)c3ccccc3)nc2c(N)n1
inactive: endpoint: mean survival time, dose: 100.0 mg/kg/injection, schedule: Q01DX001 (ip), vehicle: saline with Tween-80 98 % of control | endpoint: mean survival time, dose: 200.0 mg/kg/injection, schedule: Q01DX001 (ip), vehicle: saline with Tween-80 88 % of control | endpoint: mean survival time, dose: 400.0 mg/kg/injection, schedule: Q01DX001 (ip), vehicle: saline with Tween-80 98 % of control

N=c1ccn(C2OC(CO)C(O)C2O)c(=O)n1O (stereo not given)
active: endpoint: mean survival time, dose: 16.0 mg/kg/injection, schedule: Q01DX008 (ip), vehicle: saline 156 % of control | endpoint: mean survival time, dose: 32.0 mg/kg/injection, schedule: Q01DX008 (ip), vehicle: saline 161 % of control | endpoint: mean survival time, dose: 64.0 mg/kg/injection, schedule: Q01DX008 (ip), vehicle: saline 170 % of control | endpoint: mean survival time, dose: 128.0 mg/kg/injection, schedule: Q01DX008 (ip), vehicle: saline 176 % of control | endpoint: mean survival time, dose: 128.0 mg/kg/injection, schedule: Q01DX008 (oral), vehicle: saline 156 % of control | endpoint: mean survival time, dose: 128.0 mg/kg/injection, schedule: Q01DX009 (ip), vehicle: saline 206 % of control | endpoint: mean survival time, dose: 256.0 mg/kg/injection, schedule: Q01DX009 (ip), vehicle: saline 214 % of control | endpoint: mean survival time, dose: 512.0 mg/kg/injection, schedule: Q01DX009 (oral), vehicle: saline 167 % of control | endpoint: mean survival time, dose: 512.0 mg/kg/injection, schedule: Q04DX003 (ip), vehicle: saline 153 % of control | endpoint: mean survival time, dose: 1024.0 mg/kg/injection, schedule: Q01DX009 (oral), vehicle: saline 210 % of control | endpoint: mean survival time, dose: 1024.0 mg/kg/injection, schedule: Q04DX003 (ip), vehicle: saline 155 % of control | endpoint: mean survival time, dose: 1024.0 mg/kg/injection, schedule: Q04DX003 (oral), vehicle: saline 155 % of control
inactive: endpoint: mean survival time, dose: 16.0 mg/kg/injection, schedule: Q01DX008 (oral), vehicle: saline 110 % of control | endpoint: mean survival time, dose: 128.0 mg/kg/injection, schedule: Q01DX001 (ip), vehicle: saline 101 % of control | endpoint: mean survival time, dose: 128.0 mg/kg/injection, schedule: Q01DX001 (oral), vehicle: saline 96 % of control | endpoint: mean survival time, dose: 128.0 mg/kg/injection, schedule: Q04DX003 (oral), vehicle: saline 103 % of control | endpoint: mean survival time, dose: 256.0 mg/kg/injection, schedule: Q01DX001 (ip), vehicle: saline 102 % of control | endpoint: mean survival time, dose: 256.0 mg/kg/injection, schedule: Q01DX001 (oral), vehicle: saline 100 % of control | endpoint: mean survival time, dose: 256.0 mg/kg/injection, schedule: Q04DX003 (oral), vehicle: saline 110 % of control | endpoint: mean survival time, dose: 512.0 mg/kg/injection, schedule: Q01DX001 (ip), vehicle: saline 111 % of control | endpoint: mean survival time, dose: 512.0 mg/kg/injection, schedule: Q01DX001 (oral), vehicle: saline 103 % of control | endpoint: mean survival time, dose: 512.0 mg/kg/injection, schedule: Q01DX009 (ip), vehicle: saline 120 % of control | endpoint: mean survival time, dose: 1024.0 mg/kg/injection, schedule: Q01DX001 (ip), vehicle: saline 108 % of control | endpoint: mean survival time, dose: 1024.0 mg/kg/injection, schedule: Q01DX001 (oral), vehicle: saline 122 % of control | endpoint: mean survival time, dose: 1024.0 mg/kg/injection, schedule: Q01DX009 (ip), vehicle: saline 116 % of control

CC1CCCC(CN=Cc2ccccc2O)[N-]1.CC1CCCC(CN=Cc2ccccc2O)[N-]1.[Ni+2] (stereo not given)
inactive: endpoint: mean survival time, dose: 6.25 mg/kg/injection, schedule: Q04DX002 (ip), vehicle: saline with Tween-80 98 % of control | endpoint: mean survival time, dose: 12.5 mg/kg/injection, schedule: Q04DX002 (ip), vehicle: saline with Tween-80 95 % of control | endpoint: mean survival time, dose: 25.0 mg/kg/injection, schedule: Q04DX002 (ip), vehicle: saline with Tween-80 91 % of control and 95 % of control | [3] 91 % of control | [4] 97 % of control

CC(=O)N(C)c1ccc(NC(=O)Nc2ccc(Cl)cc2C)cc1
inactive: endpoint: mean survival time, dose: 50.0 mg/kg/injection, schedule: Q01DX009 (ip), vehicle: saline with Tween-80 91 % of control | endpoint: mean survival time, dose: 100.0 mg/kg/injection, schedule: Q01DX009 (ip), vehicle: saline with Tween-80 88 % of control | endpoint: mean survival time, dose: 200.0 mg/kg/injection, schedule: Q01DX009 (ip), vehicle: saline with Tween-80 91 % of control

CC(C)(CC/C(=N\Nc1ccc([N+](=O)[O-])cc1[N+](=O)[O-])c1ccccc1)C1OCCO1
inactive: [3] 90 % of control | [4] 98 % of control | endpoint: mean survival time, dose: 200.0 mg/kg/injection, schedule: Q04DX002 (ip), vehicle: saline with Tween-80 94 % of control

O=C1C=C(O)c2ccccc2C1=O.[Ag]
inactive: endpoint: mean survival time, dose: 12.5 mg/kg/injection, schedule: Q01DX001 (ip), vehicle: saline with Tween-80 97 % of control | endpoint: mean survival time, dose: 25.0 mg/kg/injection, schedule: Q01DX001 (ip), vehicle: saline with Tween-80 93 % of control

CCCC1CC[N-]CC1.CCCC1CC[N-]CC1.[Br][Pt+2]([Br])([Br])[Br]
inactive: endpoint: mean survival time, dose: 6.25 mg/kg/injection, schedule: Q01DX009 (ip), vehicle: water 94 % of control | endpoint: mean survival time, dose: 12.5 mg/kg/injection, schedule: Q01DX009 (ip), vehicle: water 96 % of control | endpoint: mean survival time, dose: 25.0 mg/kg/injection, schedule: Q01DX009 (ip), vehicle: water 97 % of control | endpoint: mean survival time, dose: 50.0 mg/kg/injection, schedule: Q01DX009 (ip), vehicle: water 91 % of control | [1] 90 % of control

c1ccc2[nH]c(C3CCCCN3)cc2c1 (stereo not given)
inactive: endpoint: mean survival time, dose: 100.0 mg/kg/injection, schedule: Q01DX001 (ip), vehicle: saline 101 % of control | endpoint: mean survival time, dose: 200.0 mg/kg/injection, schedule: Q01DX001 (ip), vehicle: saline 96 % of control

Nc1ncnc2c1nnn2Cc1ccco1
inactive: endpoint: mean survival time, dose: 12.5 mg/kg/injection, schedule: Q01DX005 (ip), vehicle: other 96 % of control | endpoint: mean survival time, dose: 25.0 mg/kg/injection, schedule: Q01DX005 (ip), vehicle: other 89 % of control | endpoint: mean survival time, dose: 50.0 mg/kg/injection, schedule: Q01DX005 (ip), vehicle: other 89 % of control | endpoint: mean survival time, dose: 100.0 mg/kg/injection, schedule: Q01DX005 (ip), vehicle: other 93 % of control | endpoint: mean survival time, dose: 200.0 mg/kg/injection, schedule: Q01DX005 (ip), vehicle: other 96 % of control
